One test has as its target TEAD1 (Homo sapiens (Human), UniProt P28347). Put plainly: TR-FRET lipid pocket probe competition assay (Lipid HTRF), TEAD1.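 Also: His-tagged TEAD1 with biotinylated probe, detected via Europium anti-His and XL665 streptavidin, probe displacement lowers TR-FRET signal, IC50 from four-parameter nonlinear fit.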 As to conditions: 4 hours pre-incubation; read-out: Lipid HTRF TEAD1 IC50. Type of test: binding.
The target of a further test is TEAD2 (Homo sapiens (Human), UniProt Q15562).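 Also: TR-FRET competition assay with His-tagged TEAD protein and a biotinylated lipid pocket probe, compound pre-incubated 30 min or 4 h at room temperature, displacement lowers signal.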
Chain of TEAD2 (Q15562 whole entry, species assumed): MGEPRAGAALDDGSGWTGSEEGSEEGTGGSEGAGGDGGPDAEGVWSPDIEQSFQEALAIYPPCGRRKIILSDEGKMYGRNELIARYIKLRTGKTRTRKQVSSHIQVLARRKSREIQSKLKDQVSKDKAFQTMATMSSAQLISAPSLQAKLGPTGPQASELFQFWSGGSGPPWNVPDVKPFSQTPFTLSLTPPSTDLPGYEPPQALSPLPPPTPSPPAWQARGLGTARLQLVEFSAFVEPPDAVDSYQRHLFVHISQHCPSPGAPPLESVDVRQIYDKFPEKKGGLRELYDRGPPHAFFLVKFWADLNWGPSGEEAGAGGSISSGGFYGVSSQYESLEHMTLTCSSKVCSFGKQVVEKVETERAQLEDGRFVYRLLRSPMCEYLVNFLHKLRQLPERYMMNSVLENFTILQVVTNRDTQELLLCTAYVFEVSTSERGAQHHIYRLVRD
A further test concerns the target TEAD4 (Homo sapiens (Human), UniProt Q15561). Put plainly: TR-FRET lipid pocket probe competition assay (Lipid HTRF), TEAD4.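 Also: His-tagged TEAD4 with biotinylated lipid-pocket probe, read by Europium anti-His and XL665 streptavidin, where probe displacement lowers the TR-FRET signal, IC50 from a four-parameter fit.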 The conditions noted are these: 4 hours pre-incubation; read-out: Lipid HTRF TEAD4 IC50. The format is binding. A general note: Time-resolved FRET reads energy transfer from a long-lived donor to a nearby acceptor.
The next test addresses TEAD3 (Homo sapiens (Human), UniProt Q99594). As to the kind of experiment: TR-FRET lipid pocket probe competition assay (Lipid HTRF), TEAD3. The conditions noted are these: 4 hours pre-incubation; read-out: Lipid HTRF TEAD3 IC50. The format is binding.

Molecules are shown by their SMILES.

Chain of TEAD4 (Q15561 whole entry, species assumed): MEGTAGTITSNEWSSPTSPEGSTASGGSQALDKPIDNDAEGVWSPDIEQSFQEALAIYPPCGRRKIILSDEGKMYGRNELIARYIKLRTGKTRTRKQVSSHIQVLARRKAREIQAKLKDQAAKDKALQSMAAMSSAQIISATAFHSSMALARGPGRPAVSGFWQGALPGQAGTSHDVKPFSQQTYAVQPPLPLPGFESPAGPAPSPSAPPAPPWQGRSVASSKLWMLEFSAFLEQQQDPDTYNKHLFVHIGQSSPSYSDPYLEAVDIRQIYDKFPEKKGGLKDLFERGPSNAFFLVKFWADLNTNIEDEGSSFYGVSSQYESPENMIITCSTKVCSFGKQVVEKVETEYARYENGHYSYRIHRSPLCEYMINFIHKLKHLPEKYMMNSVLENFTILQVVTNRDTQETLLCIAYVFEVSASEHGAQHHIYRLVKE
Chain of TEAD3 (Q99594 whole entry, species assumed): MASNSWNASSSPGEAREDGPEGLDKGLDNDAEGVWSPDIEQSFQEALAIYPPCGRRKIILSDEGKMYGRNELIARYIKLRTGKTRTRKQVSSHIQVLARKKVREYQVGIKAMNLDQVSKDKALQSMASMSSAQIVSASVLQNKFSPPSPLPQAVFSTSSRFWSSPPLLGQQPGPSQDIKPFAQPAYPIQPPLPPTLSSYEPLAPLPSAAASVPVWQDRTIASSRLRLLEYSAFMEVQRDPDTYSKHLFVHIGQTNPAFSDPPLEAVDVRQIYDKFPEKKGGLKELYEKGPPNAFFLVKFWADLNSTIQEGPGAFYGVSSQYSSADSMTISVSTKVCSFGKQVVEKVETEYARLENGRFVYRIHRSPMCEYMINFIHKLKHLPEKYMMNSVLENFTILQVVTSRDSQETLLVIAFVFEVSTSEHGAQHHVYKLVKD
Chain of TEAD1 (P28347 whole entry, species assumed): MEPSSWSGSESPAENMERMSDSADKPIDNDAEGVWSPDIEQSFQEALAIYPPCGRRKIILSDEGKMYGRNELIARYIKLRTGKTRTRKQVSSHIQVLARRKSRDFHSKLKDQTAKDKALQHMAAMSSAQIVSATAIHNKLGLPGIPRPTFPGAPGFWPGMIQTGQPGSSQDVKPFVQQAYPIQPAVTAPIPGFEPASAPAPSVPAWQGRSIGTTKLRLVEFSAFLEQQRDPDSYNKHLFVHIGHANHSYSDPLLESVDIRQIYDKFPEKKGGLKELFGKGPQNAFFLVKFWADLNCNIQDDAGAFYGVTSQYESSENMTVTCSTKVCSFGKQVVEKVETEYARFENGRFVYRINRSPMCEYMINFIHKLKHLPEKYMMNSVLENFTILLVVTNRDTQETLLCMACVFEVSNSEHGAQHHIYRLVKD
Method for TEAD1: (§1) His-tagged TEAD proteins are pre-incubated with TEAD project compounds for 30 minutes or 4 hours at room temperature. Biotinylated lipid pocket probes are then added to the TEAD/Compound mixture and incubated for 60 minutes at room temperature. The lipid pocket probe competes with the test compound for the TEAD lipid pocket until equilibrium is reached. After 60 minutes, Europium labelled anti-His (Perkin Elmer #AD0110) and XL665 labelled streptavidin (CIS Bio 610SAXAC) are added to the TEAD/test compound/lipid pocket mixture and incubated for 30 minutes or 4 hours. […] If a TEAD lipid pocket binder such as binds and displaces the lipid pocket probe, the disruption of the TEAD:probe interaction results in a decrease in TR-FRET signal. The potency of compounds as TEAD lipid pocket binders is determined by IC50 value generated using a non-linear 4 parameter curve fit.
Method for TEAD3: as §1

By IC50 is commonly meant the concentration at which inhibition is half-maximal. In the case of `C=CC(=O)NCc1nn(-c2ccc(OC(F)(F)F)cc2)c2nccc(-c3cnn(CCO)c3)c12` [Compound 35, N-((4-(1-(2-Hydroxyethyl)-1H-pyrazol-4-yl)-1-(4-(trifluoromethoxy)phenyl)-1H-pyrazolo[3,4-b]pyridin-3-yl)methyl)acrylamide], the IC50 on TEAD1 turned out to be 17 nM; at TEAD2 it was 170 nM; at TEAD4, 14 nM; on TEAD3, 640 nM.

Take `C=CC(=O)NCc1nn(-c2ccc(OC(F)(F)F)cc2)c2nccc(NCCO)c12` [Compound 36, N-((4-((2-Hydroxyethyl)amino)-1-(4-(trifluoromethoxy)phenyl)-1H-pyrazolo[3,4-b]pyridin-3-yl)methyl)acrylamide]: the IC50 was 9.2 nM at TEAD1, 120 nM at TEAD2, 5.8 nM on TEAD4 and 500 nM on TEAD3.

`O=C(/C=C/Cl)NCc1nn(-c2ccc(OC(F)(F)F)cc2)c2nccc(CO)c12` [Compound 37, (E)-3-Chloro-N-((4-(hydroxymethyl)-1-(4-(trifluoromethoxy)phenyl)-1H-pyrazolo[3,4-b]pyridin-3-yl)methyl)acrylamide]: the IC50 was 6.9 nM on TEAD1, 14 nM at TEAD2, 3.2 nM at TEAD4 and 33 nM on TEAD3.

In the case of `C=CC(=O)NCc1nn(-c2ccc(OC(F)(F)F)cc2)c2nccc([C@H]3C[C@@H](O)C3)c12` [Compound 38, N-((4-(cis-3-Hydroxycyclobutyl)-1-(4-(trifluoromethoxy)phenyl)-1H-pyrazolo[3,4-b]pyridin-3-yl)methyl)acrylamide], the IC50 at TEAD1 was found to be 180 nM; against TEAD2, 100 nM; at TEAD4, 39 nM; on TEAD3, 50000 nM.

In the case of `C=C(F)C(=O)N1CC(c2nn(-c3ccc(OC(F)(F)F)cc3)c3nccc(N4CC(F)(CO)C4)c23)C1` [Compound 39, 2-Fluoro-1-(3-(4-(3-fluoro-3-(hydroxymethyl)azetidin-1-yl)-1-(4-(trifluoromethoxy)phenyl)-1H-pyrazolo[3,4-b]pyridin-3-yl)azetidin-1-yl)prop-2-en-1-one], the IC50 at TEAD1 was 42 nM; on TEAD2, 19 nM; on TEAD4, 5.4 nM; on TEAD3 it was 840 nM.

As for `COC/C=C/C(=O)N1CC(c2nn(-c3ccc(OC(F)(F)F)cc3)c3nccc(CO)c23)C1` [Compound 40, (E)-1-(3-(4-(Hydroxymethyl)-1-(4-(trifluoromethoxy)phenyl)-1H-pyrazolo[3,4-b]pyridin-3-yl)azetidin-1-yl)-4-methoxybut-2-en-1-one], the IC50 worked out at 16 nM on TEAD1, 48 nM against TEAD2, 13 nM at TEAD4 and 66 nM at TEAD3.

On to `C=C(F)C(=O)N1CC(c2nn(-c3ccc(OC(F)(F)F)cc3)c3nccc(NC(=O)CO)c23)C1` [Compound 42, N-(3-(1-(2-Fluoroacryloyl)azetidin-3-yl)-1-(4-(trifluoromethoxy)phenyl)-1H-pyrazolo[3,4-b]pyridin-4-yl)-2-hydroxyacetamide], for which the IC50 worked out at 20 nM at TEAD1, 200 nM at TEAD2, 25 nM at TEAD4 and 27 nM on TEAD3.

On to `C=CC(=O)NCc1nn(-c2ccc(OC(F)(F)F)cc2)c2nccc(N3CC(CO)C3)c12` [Compound 43, N-((4-(3-(hydroxymethyl)azetidin-1-yl)-1-(4-(trifluoromethoxy)phenyl)-1H-pyrazolo[3,4-b]pyridin-3-yl)methyl)acrylamide], for which the IC50 worked out at 13 nM at TEAD1, 54 nM against TEAD2, 4.6 nM on TEAD4 and 780 nM on TEAD3.

Take `C=C(F)C(=O)N1CC(c2nn(-c3ccc(OC(F)(F)F)cc3)c3nccc(-c4cnn(CCN(C)C)c4)c23)C1` [Compound 45, 1-(3-(4-(1-(2-(Dimethylamino)ethyl)-1H-pyrazol-4-yl)-1-(4-(trifluoromethoxy)phenyl)-1H-pyrazolo[3,4-b]pyridin-3-yl)azetidin-1-yl)-2-fluoroprop-2-en-1-one]: the IC50 was 250 nM at TEAD1, 1500 nM on TEAD2, 340 nM at TEAD4 and 50000 nM on TEAD3.

For the molecule `C=CC(=O)NCc1nn(-c2ccc(OC(F)(F)F)cc2)c2nccc(N3CC[C@H](O)C3)c12` [Compound 46, (S)-N-((4-(3-hydroxypyrrolidin-1-yl)-1-(4-(trifluoromethoxy)phenyl)-1H-pyrazolo[3,4-b]pyridin-3-yl)methyl)acrylamide], the IC50 is 50 nM at TEAD1, 150 nM on TEAD2, 13 nM on TEAD4 and 2100 nM at TEAD3.

In the case of `C=CC(=O)NCc1nn(-c2ccc(OC(F)(F)F)cc2)c2nccc(N3CC[C@@H](O)C3)c12` [Compound 47, (R)-N-((4-(3-hydroxypyrrolidin-1-yl)-1-(4-(trifluoromethoxy)phenyl)-1H-pyrazolo[3,4-b]pyridin-3-yl)methyl)acrylamide], the IC50 was 33 nM on TEAD1, 100 nM against TEAD2, 11 nM at TEAD4 and 2000 nM on TEAD3.

With `C#Cc1ccnc2c1c(C1CN(C(=O)C=C)C1)nn2-c1ccc(OC(F)(F)F)cc1` [Compound 48, 1-(3-(4-Ethynyl-1-(4-(trifluoromethoxy)phenyl)-1H-pyrazolo[3,4-b]pyridin-3-yl)azetidin-1-yl)prop-2-en-1-one], the IC50 on TEAD1 stood at 3.5 nM; against TEAD2, 2.3 nM; at TEAD4, 0.88 nM; on TEAD3, 4.8 nM.

For `O=C(/C=C/CO)N1CC(c2nn(-c3ccc(OC(F)(F)F)cc3)c3nccc(-c4cn[nH]c4)c23)C1` [Compound 50, (E)-1-(3-(4-(1H-Pyrazol-4-yl)-1-(4-(trifluoromethoxy)phenyl)-1H-pyrazolo[3,4-b]pyridin-3-yl)azetidin-1-yl)-4-hydroxybut-2-en-1-one], the IC50 came to 24 nM at TEAD1, 75 nM on TEAD2, 9.5 nM on TEAD4 and 200 nM on TEAD3.

Consider `C=CC(=O)NCc1nn(-c2ccc(OC(F)(F)F)cc2)c2nccc(-c3c[nH]nn3)c12` [Compound 51, N-((4-(1H-1,2,3-Triazol-4-yl)-1-(4-(trifluoromethoxy)phenyl)-1H-pyrazolo[3,4-b]pyridin-3-yl)methyl)acrylamide], for which the IC50 amounted to 32 nM at TEAD1, 120 nM against TEAD2, 15 nM on TEAD4 and 510 nM on TEAD3.

Regarding `C=CC(=O)NCc1nn(-c2ccc(OC(F)(F)F)cc2)c2nccc(N3CC(C#N)C3)c12` [Compound 52, N-((4-(3-Cyanoazetidin-1-yl)-1-(4-(trifluoromethoxy)phenyl)-1H-pyrazolo[3,4-b]pyridin-3-yl)methyl)acrylamide], the IC50 at TEAD1 was 14 nM; against TEAD2 it was 45 nM; at TEAD4 it was 3.4 nM; at TEAD3, 3500 nM.

For the molecule `O=C(/C=C\Cl)NCc1nn(-c2ccc(OC(F)(F)F)cc2)c2nccc([C@H](O)CO)c12` [Compound 53, (S,Z)-3-chloro-N-((4-(1,2-dihydroxyethyl)-1-(4-(trifluoromethoxy)phenyl)-1H-pyrazolo[3,4-b]pyridin-3-yl)methyl)acrylamide], the IC50 on TEAD1 was 45 nM; against TEAD2 it was 36 nM; at TEAD4, 3.5 nM; at TEAD3, 50000 nM.

With `C=CC(=O)NCc1nn(-c2ccc(OC(F)(F)F)cc2)c2nccc(CN3CC(O)C3)c12` [Compound 54, N-((4-((3-Hydroxyazetidin-1-yl)methyl)-1-(4-(trifluoromethoxy)phenyl)-1H-pyrazolo[3,4-b]pyridin-3-yl)methyl)acrylamide], the IC50 at TEAD1 amounted to 490 nM; against TEAD2 it was 730 nM; on TEAD4, 860 nM; on TEAD3, 10000 nM.

For `C=CC(=O)N(C)Cc1nn(-c2ccc(OC(F)(F)F)cc2)c2nccc(CO)c12` [Compound 55, N-((4-(Hydroxymethyl)-1-(4-(trifluoromethoxy)phenyl)-1H-pyrazolo[3,4-b]pyridin-3-yl)methyl)-N-methylacrylamide], the IC50 at TEAD1 stood at 17 nM; against TEAD2, 120 nM; at TEAD4 it was 12 nM; at TEAD3, 160 nM.

For `C=CC(=O)NCc1nn(-c2ccc(OC(F)(F)F)cc2)c2nccc([C@H]3C[C@H](O)C3)c12` [Compound 56, N-((4-(trans-3-hydroxycyclobutyl)-1-(4-(trifluoromethoxy)phenyl)-1H-pyrazolo[3,4-b]pyridin-3-yl)methyl)acrylamide], the IC50 was determined as 39 nM on TEAD1, 85 nM on TEAD2, 11 nM at TEAD4 and 50000 nM at TEAD3.

`C=C(F)C(=O)N1CC(c2nn(-c3ccc(OC(F)(F)F)cc3)c3nccc(N4CC(F)(C(N)=O)C4)c23)C1` [Compound 57, 3-Fluoro-1-(3-(1-(2-fluoroacryloyl)azetidin-3-yl)-1-(4-(trifluoromethoxy)phenyl)-1H-pyrazolo[3,4-b]pyridin-4-yl)azetidine-3-carboxamide]: the IC50 on TEAD1 turned out to be 36 nM; against TEAD2, 37 nM; at TEAD4, 5.1 nM; on TEAD3, 350 nM.

On to `C=C(F)C(=O)N1CC(c2nn(-c3ccc(OC(F)(F)F)cc3)c3nccc(N4CC([C@@H](O)CO)C4)c23)C1` [Compound 58, (R)-1-(3-(4-(3-(1,2-Dihydroxyethyl)azetidin-1-yl)-1-(4-(trifluoromethoxy)phenyl)-1H-pyrazolo[3,4-b]pyridin-3-yl)azetidin-1-yl)-2-fluoroprop-2-en-1-one], for which the IC50 on TEAD1 came to 38 nM; at TEAD2, 70 nM; at TEAD4, 9.6 nM; at TEAD3 it was 50000 nM.

The values above are taken from patent US12110276B2 (Genentech, Inc., priority 2021, dated 2024).
